Experimental data taken from publication PMC10836395, “Investigation of how gate residues in the main channel affect the catalytic activity of Scytalidium thermophilum catalase” (Acta Crystallographica. Section D, Structural Biology, 2024).
Substitutions are numbered along the chain they refer to. Marks after values point to notes of the source that are not given here.

Key:
[1] = biological target: T1, T188F (Mycothermus thermophilus, UniProt M4GGR5, T207F); test: Spectrophotometric phenol oxidase assay without H2O2 at pH 7.0 and 60 °C, initial rates fitted to the Michaelis-Menten equation.; assay type: biochemical; details: read-out: Phenol oxidase K m; n = 3
T1 construct: recombinant, pET-28-TEV-CATPO; contains heme b; Rz 0.8
T1 sequence (M4GGR5 20-717 T207F): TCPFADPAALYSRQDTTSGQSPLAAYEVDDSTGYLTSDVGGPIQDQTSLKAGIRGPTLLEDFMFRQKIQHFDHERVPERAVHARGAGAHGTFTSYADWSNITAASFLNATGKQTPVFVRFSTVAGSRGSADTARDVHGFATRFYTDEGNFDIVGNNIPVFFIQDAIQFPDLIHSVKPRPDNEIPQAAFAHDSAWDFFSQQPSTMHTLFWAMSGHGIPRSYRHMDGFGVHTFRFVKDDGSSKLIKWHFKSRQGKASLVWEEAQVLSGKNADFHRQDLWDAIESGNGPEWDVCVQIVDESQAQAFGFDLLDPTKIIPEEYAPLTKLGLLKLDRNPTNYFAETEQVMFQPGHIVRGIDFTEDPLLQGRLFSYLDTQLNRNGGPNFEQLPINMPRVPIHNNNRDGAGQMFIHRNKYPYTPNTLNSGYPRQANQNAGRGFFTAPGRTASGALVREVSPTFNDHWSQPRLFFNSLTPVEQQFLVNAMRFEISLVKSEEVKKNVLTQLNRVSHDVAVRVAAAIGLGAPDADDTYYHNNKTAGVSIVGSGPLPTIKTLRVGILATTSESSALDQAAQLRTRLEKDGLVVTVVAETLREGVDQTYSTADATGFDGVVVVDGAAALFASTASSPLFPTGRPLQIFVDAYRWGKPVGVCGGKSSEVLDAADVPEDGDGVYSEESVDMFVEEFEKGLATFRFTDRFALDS
Description: (§1) All inhibition assays were performed in triplicate.

[2] = biological target: T2, CATPO (Mycothermus thermophilus, UniProt M4GGR5); test: as above; assay type: biochemical; details: n = 3
T2 construct: recombinant, pET-28-TEV-CATPO; contains heme d; Rz 0.8
T2 sequence (M4GGR5 20-717): T1 sequence (M4GGR5 20-717 T207F) with F188T
Description: as §1

[3] = biological target: T3, T188I (Mycothermus thermophilus, UniProt M4GGR5, T207I); test: as above; assay type: biochemical; details: read-out: Phenol oxidase K m; n = 3
T3 construct: recombinant, pET-28-TEV-CATPO; contains heme b; Rz 0.4
T3 sequence (M4GGR5 20-717 T207I): T1 sequence (M4GGR5 20-717 T207F) with F188I
Description: as §1

[4] = biological target: CATPO E484A variant (Scytalidium thermophilum (Humicola insolens), UniProt M4GGR5, E503A); test: biochemical
[5] = biological target: CATPO T188D variant (Scytalidium thermophilum (Humicola insolens), UniProt M4GGR5, T207D); test: biochemical
[6] = biological target: T4, CATPO T188A variant (Scytalidium thermophilum (Humicola insolens), UniProt M4GGR5, T207A); assay type: biochemical
[7] = biological target: CATPO E484I variant (Scytalidium thermophilum (Humicola insolens), UniProt M4GGR5, E503I); test: biochemical
[8] = biological target: CATPO E484D variant (Scytalidium thermophilum (Humicola insolens), UniProt M4GGR5, E503D); test: biochemical
[9] = biological target: T4, CATPO T188A variant; test: biochemical

T4 sequence (M4GGR5 entry or part of it T207A): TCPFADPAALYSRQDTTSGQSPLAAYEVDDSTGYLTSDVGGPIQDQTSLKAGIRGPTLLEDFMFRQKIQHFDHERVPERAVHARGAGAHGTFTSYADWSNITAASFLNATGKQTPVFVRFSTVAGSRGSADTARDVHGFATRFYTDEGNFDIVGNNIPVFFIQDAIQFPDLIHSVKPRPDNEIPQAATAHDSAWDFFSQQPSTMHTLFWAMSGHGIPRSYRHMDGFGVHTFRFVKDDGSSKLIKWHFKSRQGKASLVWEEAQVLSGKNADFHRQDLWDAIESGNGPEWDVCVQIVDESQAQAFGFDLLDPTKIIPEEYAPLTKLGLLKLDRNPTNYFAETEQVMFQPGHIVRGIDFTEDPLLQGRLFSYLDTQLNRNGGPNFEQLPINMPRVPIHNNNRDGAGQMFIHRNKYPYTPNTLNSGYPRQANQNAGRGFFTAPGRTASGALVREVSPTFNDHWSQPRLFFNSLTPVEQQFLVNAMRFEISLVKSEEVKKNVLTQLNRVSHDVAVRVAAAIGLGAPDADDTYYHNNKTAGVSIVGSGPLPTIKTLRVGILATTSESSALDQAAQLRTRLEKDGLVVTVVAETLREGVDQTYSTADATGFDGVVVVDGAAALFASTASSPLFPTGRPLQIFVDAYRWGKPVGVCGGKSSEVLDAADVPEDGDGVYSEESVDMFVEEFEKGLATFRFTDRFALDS
Sequence of CATPO E484D variant (M4GGR5 entry or part of it E503D): as the sequence (M4GGR5 entry or part of it T207A) above
Sequence of CATPO T188D variant (M4GGR5 entry or part of it T207D): as the sequence (M4GGR5 entry or part of it T207A) above
Sequence of CATPO E484A variant (M4GGR5 entry or part of it E503A): as the sequence (M4GGR5 entry or part of it T207A) above
Sequence of CATPO E484I variant (M4GGR5 entry or part of it E503I): as the sequence (M4GGR5 entry or part of it T207A) above

Oc1cccc(O)c1O [Pyrogallol, pyrogallol]
K m [1]: 37 ± 0.5 mM
K m [2]: 40 ± 1.8 mM
K m [3]: 38 ± 0.5 mM
Ki [4]: 71 ± 4 mM
Ki [5]: 55 ± 5.5 mM
V max [6]: 16200 ± 410 mM/min
k cat/K m [6]: 660 ± 88 s^−1 M^−1 (×10^2)
K m ([6]; pH 7.0 (ABTS pH 5.0), 60°C): 40 ± 1.0 mM
Ki [7]: 58 ± 1.8 mM
Ki [8]: 4.1 ± 0.7 mM
Ki [9]: 4.1 ± 0.8 mM
